Assay results from patent publication US9248187B2, “Oxadiazole inhibitors of leukotriene production for combination therapy” (Boehringer Ingelheim International GmbH, priority 2012, dated 2016).
Several values for one entry are separate records, joined by “and”; a condition that tells them apart may be missing. Equal values may be shown once. Each block holds one compound with its values, some of them ahead of it.

Assays:
[1] = test system: atherosclerotic plaque in the descending aorta; assay: 13 week HF/HC diet rabbit model of atherosclerosis, on top of simvastatin; format: in vivo, NZW rabbits; details: compound 115 2.5 mg/kg and simvastatin 2.5 mg/kg; p=0.05
Description: The objective of the study is to determine if the compounds of Formula I provide additional reduction in atherosclerosis development in high fat/high cholesterol (HF/HC) fed rabbits on top of simvastatin compared to simvastatin alone. Treatment with a statin is considered the standard of care for atherosclerosis clinically. In order to determine if the anti-atherosclerotic effect observed in rabbits is effective on top of statin treatment, rabbits were treated with compound 115 (Table 1) in combination with simvastatin and the effects on atherosclerosis reduction with both control and statin treatment alone were compared. […] The rabbits were fed 125 g of rabbit chow each day and both food consumption and body weights were measured throughout the study period. […] The extent of atherosclerosis development was measured in the descending aorta after the vessels were pinned out on the silicone surface of metal trays and stained with Sunan IV stain. […] The percentage of plaque area of the descending aorta was determined. […] Atherosclerotic lesion formation was quantified by image analysis software using ImagePro Plus software. The mean of thee different sections 100 μm apart was determined. The mean value of each parameter was calculated for each different treatment group and compared to the control value. […]

[2] = target: T1, recombinant human FLAP protein (Homo sapiens, UniProt P20292); assay: FLAP binding assay (SPA, displacement of [125I]L-691,831); details: @1000 nM
T1 construct: made in house; host or cells: Sf9 insect cells (membrane fraction, 100,000 x g pellet)
T1 sequence (P20292 1-161): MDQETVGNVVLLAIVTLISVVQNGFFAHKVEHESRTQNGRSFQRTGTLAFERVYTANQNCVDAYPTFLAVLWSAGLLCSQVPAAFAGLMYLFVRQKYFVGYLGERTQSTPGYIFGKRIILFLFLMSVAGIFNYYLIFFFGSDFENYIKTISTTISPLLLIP
Description: Assessment of Biological Properties 1. Binding Assay
Cell pellets produced from sf9 insect cells expressing recombinant human FLAP protein are resuspended in buffer A [15 mM Tris-HCl (pH 7.5), 2 mM MgCl2, 0.3 mM EDTA, 1 mM PMSF]. The cells are lysed with a Dounce homogenizer and the material is centrifuged at 10,000×g for 10 minutes. The supernatant is then collected and centrifuged at 100,000×g for 60 minutes. To prepare membrane protein for an assay, an aliquot of the 100,000×g pellet is resuspended in 1 ml of buffer A, Dounce homogenized, and finally subjected to polytron mixing (30 seconds). Membrane protein (25 μl, 5 μg) is mixed with WGA SPA beads (Amersham) and stirred for 1 h.

proteinuria = details: clinical trial, human glomerulonephritis; cited from earlier work

SMILES: CN(C)C(=O)Cn1cc(-c2nc([C@@](C)(c3ccc(-c4cnc(N)nc4)cc3)C3CC3)no2)cn1 (single isomer, unassigned) [Example 115]
- further reduction in plaque area compared to simvastatin alone [1]: 32% and 34%

- FLAP binding % inh [2]: 51% inh@1000 nM
SMILES: CC(C)C(C)(c1ccc(-c2cnc(N)nc2)cc1)c1noc(O)n1 (stereo not drawn) [Example 88, 3-{1-[4-(2-Amino-pyrimidin-5-yl)-phenyl]-1,2-dimethyl-propyl}-[1,2,4]oxadiazol-5-ol]

SMILES: CC(C)(C)Sc1c(CC(C)(C)C(=O)O)n(Cc2ccc(Cl)cc2)c2ccc(OCc3ccc4ccccc4n3)cc12 [MK-591]
- effect on proteinuria (proteinuria): reduce proteinuria
